This is an account of results in patent US7285555B2, “6-aryl-7-halo-imidazo[1,2-a]pyrimidines as anticancer agents” (Wyeth Holdings Corporation, priority 2003, dated 2007).

pIC50: −log10 of the molar value.

One assay has as its system KB cells. The assay can be described thus: MTS cytotoxicity test procedure with KB cells. It counts as cell-based. The conditions noted are these: Homo sapiens, MTS assay, means of 2 independent experiments. An excerpt:
(§1) Human cancer cell lines, unless otherwise noted, are obtained from the American Type Culture Collection (Rockville, Md.). […]
(§2) The MTS assay, which is sold in kit form by Promega (Madison, Wis.; CellTiter 96 AQueous Non-Radioactive Cell Proliferation Assay), is based on the conversion by viable cells, but not by dead cells, of the tetrazolium salt, MTS (3-(4,5-dimethylthiazol-2-yl)-5-(3-carboxymethoxyphenyl)-2-(4-sulphophenyl)-2H-tetrazolium, inner salt), into a water-soluble colored formazan which is detected by spectrophotometry. […] For the test procedure, cells are harvested by trypsinization (or, in the case of non-adherent cells, by simple resuspension), washed, counted and distributed to wells of 96-well flat-bottom microtiter plates at 1000 cells per well in 200 μL of medium. […]
(§3) After three days of culture with test compounds (day 5 overall), the MTS assay is done on all wells of the experimental plates. The absorbance values of the quadruplicate sample wells are averaged and divided by the average of the “time 0” values. […]
In general terms: Tetrazolium dyes change colour on reduction, which living cells bring about.

A further assay has as its system KB-8-5 cells. Put plainly: MTS cytotoxicity test procedure with KB-8-5 cells. To be noted: MTS assay. The class given is cell-based, human.
Description: as §1, §2, §3

The next assay concerns KB-V1 cells. The assay can be described thus: SRB cytotoxicity test procedure with KB-V1 cells. It counts as cell-based, human. To be noted: SRB assay; for Ratio VI/KB: IC50 on KB VI cells/IC50 on KB cells. The text has this: Human cancer cell lines, unless otherwise noted, are obtained from the American Type Culture Collection (Rockville, Md.). The following drug-sensitive parental cell lines, and their derived drug-resistant counterparts, are obtained from the originators as listed: (a) S1 (parental line from a subclone of human colon carcinoma line LS174T) and derived S1-M1-3.2 (herein called S1-M1) which expresses the MXR drug transporter protein, are provided by Dr. L. Greenberger, Wyeth Research (Rabindran, S. K., He, H., Singh, M., Brown, E., Collins, K. I., Annable, T., and Greenberger, L. M. Reversal of a novel multidrug resistance mechanism in human colon carcinoma cells by fumitremorgin C. Cancer Res., 58: 5850-5858,1998); (b) parental HL-60 human promyelocytic leukemia line and derived HL-60/ADR, which expresses the MRP1 drug transporter protein, are provided by Dr. M. Center, University of Kansas (McGrath, T., and Center, M. S. Adriamycin resistance in HL60 cells in the absence of detectable P-glycoprotein. Biochem. Biophys. […] J. Biol. Chem., 261: 7762-7770, 1986) via Dr. L. Greenberger, Wyeth Research.
The SRB standard cytotoxicity assay is done according to previously reported methods (Discafani, C. M., Carroll, M. L., Floyd Jr., M. B. F., Hollander, I. J., Husain, Z., Johnson, B. D., Kitchen, D., May, M. K., Malo, M. S., Minnick Jr., A. A., Nilakantan, R., Shen, R., Wang Y-F., Wissner, A., Greenberger, L. M. Irreversible inhibition of epidermal growth factor receptor tyrosine kinase with in vivo activity by N-[4-[3-bromophenyl)amino]-6-quinaxolinyl]-2-butynamide (CL-387,785). Biochem. Pharmacol., 57: 917-925, 1999). Briefly, cells are plated in 100 μL of medium in 96-well flat-bottom microtiter plates in the morning of day 1 and allowed to adhere to the plates for 2-6 hr. Compounds are serially diluted into medium as 2× stocks and 100 μL of these stocks are added to cells in duplicate. Compounds are incubated with cells for 3 days. At the end of the incubation period the sulforhodamine B (SRB) assay, which measures protein content as an assessment of cell survival, is performed as described previously (Skehan, P., Storeng, R., Scudiero, D., Monks, A., McMahon, J., Vistica, D., Warren, J. T., Bokesch, H., Kenney, S., Boyd, M. R. New calorimetric cytotoxicity assay for anticancer-drug screening. J. Natl. Cancer Inst., 82:1107-1112, 1990) with some modifications. Medium is gently decanted from plates and replaced with 200 μL per well of cold serum-free medium containing a final concentration of 10% trichloroacetic acid. The plates are incubated for 1 hr at 40, washed 5 times in cold distilled water, and air-dried overnight. The fixed cells are stained for 10 min with 80 μL per well of 0.04% SRB solution prepared in 1% glacial acetic acid. Staining solution is decanted, plates are washed 5 times in 1% glacial acetic acid, and then air-dried until completely dry. Stained cell product is dissolved in 150 μL per well of 10 mM Trizma Base with shaking for 20 minutes. Absorbance is read on a Victor V multi-label plate reader (Perkin Elmer, Gaithersburg, Md.).
The KB lines express different amounts of the P-glycoprotein (MDR1) membrane pump which produces resistance to the action of many cytotoxic compounds, including paclitaxel and vincristine. The parental KB line expresses no P-glycoprotein, KB-8-5 expresses moderate levels of the protein, and KB-V1 expresses very high levels.

As a reminder, the pIC50 is −log10 of the IC50, conventionally taken in molar units. Read a high pIC50 as a low IC50.

As for `CN(C)CCCOc1cc(F)c(-c2c(Cl)nc3nccn3c2C2CCCCCC2)c(F)c1` [Example 6, 3-[4-(7-Chloro-5-cycloheptylimidazo[1,2-a]pyrimidin-6-yl)-3,5-difluorophenoxy]-N,N-dimethylpropan-1-amine], the pIC50 is 7.36 in the assay on KB cells and 7.20 in the assay with KB-8-5 cells (Homo sapiens, KB 8.5 cells, means of 2 independent experiments). In the assay on KB-8-5 cells (IC50 on KB 8.5 cells/IC50 on KB cells), the “Ratio 8.5/KB” value is 1.4.

In the assay on KB-V1 cells (Homo sapiens, KB-V1, KB VI cells, means of 2 independent experiments), `CC(=O)O[C@H]1C(=O)[C@@]2(C)[C@H]([C@H](OC(=O)c3ccccc3)[C@]3(O)C[C@H](OC(=O)[C@H](O)[C@@H](NC(=O)c4ccccc4)c4ccccc4)C(C)=C1C3(C)C)[C@]1(OC(C)=O)CO[C@@H]1C[C@@H]2O` [Paclitaxel, reference compound] showed a pIC50 of less than 5.52. The results for the “Ratio VI/KB” value in the assay with KB-V1 cells and in the assay with KB-V1 cells (listed as paclitaxel) were more than 1360 and > 1,360, respectively.
